Assay results: patent US9220760B2, “Method of modulating the proliferation of medullary thyroid carcinoma cells” (The Administrators of the Tulane Educational Fund, priority 2001, dated 2015)
Like-named read-outs stand apart in the source and are kept apart here. Where a SMILES comes first, the peptide text is derived from it. [ ]: non-standard residue; d: D form. Tic = O=C(O)[C@@H]1Cc2ccccc2CN1; Abu = CC[C@H](N)C(=O)O

What was measured:
human MTC cell line TT [1] = test: TT cell viability by Trypan Blue staining; type: cell-based
Procedure: (§1) After incubation, the cells were washed three times with ice-cold PBS and twice with 10% ice-cold trichloroacetic acid (TCA). TCA-precipitated material was solubilized in 500 μL 0.2 mol/L sodium hydroxide and 0.1% SDS. Cell-associated radioactivity was then counted in a scintillation spectrometer. Results (counts per min per well) were obtained by determining the mean value of at least six experiments in quadruplicate. The viability of TT cells in control and treated cultures was evaluated by Trypan blue staining both after 24 and 48 hours, and the number of viable cells was always 85-95%.

human SSTR2 = biological target: T1, human SSTR2 (Homo sapiens, UniProt P30874); test: SSTR2 mediated intracellular calcium mobilization in CHO-K1 cells; type: cell-based; conditions: 10^-7-10^-6 M, FIG. 1
T1 construct: expressed in transfected cells
T1 sequence (P30874 whole entry): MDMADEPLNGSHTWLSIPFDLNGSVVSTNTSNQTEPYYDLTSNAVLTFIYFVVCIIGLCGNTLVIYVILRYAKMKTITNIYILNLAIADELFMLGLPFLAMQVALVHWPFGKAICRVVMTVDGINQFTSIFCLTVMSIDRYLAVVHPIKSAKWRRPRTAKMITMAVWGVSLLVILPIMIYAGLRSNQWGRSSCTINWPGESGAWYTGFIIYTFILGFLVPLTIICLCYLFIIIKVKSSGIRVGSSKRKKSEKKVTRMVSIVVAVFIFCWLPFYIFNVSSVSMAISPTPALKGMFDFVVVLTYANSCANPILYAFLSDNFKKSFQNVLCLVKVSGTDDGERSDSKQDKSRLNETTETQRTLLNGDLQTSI
Procedure: Biological activity of SSTR selective agonists and antagonists was evaluated by the calcium mobilization assay in CHO-K1 cells expressing the human SSTR2 or SSTR5. The cells were harvested by incubating in a 0.3% EDTA/phosphate buffered saline solution (25° C.), and washed twice by centrifugation. The washed cells were resuspended in Hank's—buffered saline solution (HBSS) for loading of the fluorescent Ca^2+ indicator Fura-2AM. Cell suspensions (approximately 10^6 cells/ml) were incubated with 2 mM Fura-2AM for 30 min at 25° C. Unloaded Fura-2AM was removed by centrifugation twice in HBBS, and the final suspensions were transferred to a spectrofluorometer (Hitachi F-2000) equipped with a magnetic stirring mechanism and a temperature-regulated cuvette holder. After equilibration to 37° C., the SS analogues were added for measurement of intracellular Ca^2+ mobilization.

human MTC cell line TT [2] = test: [3H]thymidine incorporation (DNA synthesis) in TT cells; type: cell-based; conditions: for Change of [3H]thy incorporation: p<0.05
Procedure: Cells were incubated in 24-well plates for 48 hours in a culture medium supplemented with SS analogues at various concentrations (10^−9, 10^−8, 10^−7, and 10^−6 M). Control wells were treated with vehicle solution and [^3H]thy incorporation was measured as radioactivity in TCA-precipitated material. Data from six individual experiments evaluated independently in quadruplicate are expressed as the mean±SEM percent [^3H]thy incorporation inhibition versus untreated control cells *P<0.05 and **P<0.01 vs. control.
Control wells were treated with vehicle solution. [^3H]thy incorporation was measured as radioactivity in TCA-precipitated material. Data from six individual experiments were evaluated independently with four replicates expressed as the mean±SEM percent [^3H]thy incorporation inhibition versus untreated control cells *P<0.05 and **P<0.01 vs. control.
The effects of SSTR selective agonists and antagonists on TT cell DNA synthesis were assessed by determining the rate of [^3H]thymidine ([^3H]thy) incorporation, as previously described (Davis L, et al., 1994 In: Basic methods in Molecular Biology, 2nd edition, Appleton & Lange, Norwalk, Conn., USA: 611-646, degli Uberti E C, et al., 1991 J Clin Endocrinol Metab 72: 1364-1371). TT cells were plated in 24-multiwell plates (10^5 cells/well) and incubated for 48 hours in a medium supplemented with 10% FBS in the presence of [^3H]thy (1.5 μCi/mL; 87 Ci/mmol) with or without each SS analogue at concentrations ranging from 10^−6 to 10^−9 M. Treatments were renewed by adding fresh analogues to the wells after the first 24 h of incubation, without removing the medium.
as §1

human SSTR1 = human SSTR1 (Homo sapiens, UniProt P30872); test: Radioligand membrane receptor binding assay, SSTR1; conditions: CHO-K1 membranes, [125I-Tyr11]SS-14; read-out: Human somatostatin receptor subtype specificity, Ki, receptor subtype 1
Sequence of human SSTR1 (P30872 whole entry): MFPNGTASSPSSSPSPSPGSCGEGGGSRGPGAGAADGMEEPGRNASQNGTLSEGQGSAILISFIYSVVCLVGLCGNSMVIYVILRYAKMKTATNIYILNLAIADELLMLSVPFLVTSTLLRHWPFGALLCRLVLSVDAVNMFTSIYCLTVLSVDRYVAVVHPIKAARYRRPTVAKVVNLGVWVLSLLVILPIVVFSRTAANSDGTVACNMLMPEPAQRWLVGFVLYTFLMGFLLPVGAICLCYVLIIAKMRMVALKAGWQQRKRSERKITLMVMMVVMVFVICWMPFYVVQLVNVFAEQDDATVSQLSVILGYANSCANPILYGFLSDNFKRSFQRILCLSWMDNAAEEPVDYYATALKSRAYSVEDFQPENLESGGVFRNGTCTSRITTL
Procedure: Specificity and selectivity of the analogues were determined by Radioligand Binding Assay on CHO-K1 cells stably transfected with each of the SSTR subtypes, as follows.
Membranes for in vitro receptor binding assays were obtained by homogenizing the CHO-K1 cells expressing the SSTR's subtypes in ice-cold 50 mM Tris-HCl and centrifuging twice at 39000 g (10 min), with an intermediate resuspension in fresh buffer. The final pellets were resuspended in 10 mM Tris-HCl for assay. […] The final assay volume was 0.3 ml. […] The incubations were terminated by rapid filtration through GF/C filters (pre-soaked in 0.3% polyethylenimine) using a Brandel filtration manifold. Each tube and filter were then washed three times with 5 ml aliquots of ice-cold buffer.
Subtype affinity was determined by radioligand membrane receptor binding assays in Chinese hamster ovary cells expressing human SSR2 gene or SSR5 cDNA

human MTC cell line TT [3] = test: TT cell proliferation ([…] 96 MTS assay, viable cell number); type: cell-based
Procedure: Cells were incubated in 96-well plates for 48 hours in a culture medium supplemented with SS analogues at various concentrations (10^−9, 10^−8, 10^−7, and 10^−6 M). Control wells were treated with vehicle solution. TT cell proliferation was measured as absorbance at […] of each well. Data from six individual experiments were evaluated independently with eight replicates expressed as the mean±SEM percent cell proliferation inhibition versus untreated control cells *P<0.05 and **P<0.01 vs. control.
(§2) Control wells were treated with vehicle solution. TT cell proliferation was measured as absorbance at […] of each well. Data from six individual experiments were evaluated independently with eight replicates expressed as the mean±SEM percent cell proliferation inhibition versus untreated control cells *P<0.05 and **P<0.01 vs. control.
as §2, with “solution and” for “solution.”
The effects of SSTR selective agonists and antagonists on TT cell proliferation were assessed by the […] […] The absorbance at 490 nm was then recorded using an ELISA plate reader (EASIA Reader, Medgenix, Camarillo, Calif.). […]

CC(C)[C@@H]1NC(=O)[C@H](CCCCN)NC(=O)[C@@H](Cc2c[nH]c3ccccc23)NC(=O)[C@H](Cc2ccc(O)cc2)NC(=O)[C@@H](NC(=O)[C@H](N)Cc2ccc3ccccc3c2)CSSC[C@@H](C(=O)N[C@H](C(N)=O)[C@@H](C)O)NC1=O [Compound 1, D-Nal-cyclo[Cys-Tyr-D-Trp-Lys-Val-Cys]-Thr-NH2]
Cytotoxic action by Trypan Blue staining (human MTC cell line TT [1]; 10^-7 M): not associated with any cytotoxic action

CC[C@@H]1NC(=O)[C@H](CCCCN)NC(=O)[C@@H](Cc2c[nH]c3ccccc23)NC(=O)[C@H](Cc2ccc(O)cc2)NC(=O)[C@@H]2Cc3ccccc3CN2C(=O)[C@H](Cc2ccccc2)NC1=O [Compound 2, cyclo[Tic-Tyr-D-Trp-Lys-Abu-Phe]] (cyclo([Tic]Y[dW]K[Abu]F))
Cytotoxic action by Trypan Blue staining (human MTC cell line TT [1]): not associated with any cytotoxic action
Intracellular Ca2+ mobilization (ratio stimulated/basal) in SSTR2 expressing cells (human SSTR2): stimulated significant intracellular Ca^2+ mobilization

CC[C@@H]1NC(=O)[C@H](CCCCN)NC(=O)[C@@H](Cc2c[nH]c3ccccc23)NC(=O)[C@H](Cc2ccc(O)cc2)NC(=O)[C@@H](NC(=O)[C@@H](Cc2ccccc2)NC(=O)CN2CCN(CCO)CC2)CSSC[C@@H](C(=O)N[C@H](C(N)=O)[C@@H](C)O)NC1=O [Compound 3, 4-(2-Hydroxyethyl)-1-piperazinylacetyl-D-Phe-cyclo(Cys-Tyr-D-Trp-Lys-Abu-Cys)-Thr-NH2]
Significant reduction of [3H]thy incorporation (human MTC cell line TT [2]; 10^-8 M and 10^-7 M): not
Significant reduction of [3H]thy incorporation (human MTC cell line TT [2]; 10^-9 M): significantly (p<0.05) reduced
Change of [3H]thy incorporation (human MTC cell line TT [2]; 10^-9 M, 48 h): −17%
Ki (human SSTR1): 5.21 µM

CC[C@@H]1NC(=O)[C@H](CCCCN)NC(=O)[C@@H](Cc2c[nH]c3ccccc23)NC(=O)[C@H](Cc2ccc(O)cc2)NC(=O)[C@@H](NC(=O)[C@@H](Cc2ccccc2)NS(=O)(=O)CCN2CCN(CCO)CC2)CSSC[C@@H](C(=O)N[C@H](C(N)=O)[C@@H](C)O)NC1=O [Compound 4, 4-(2-Hydroxyethyl)-1-piperazine-2-ethanesulfonyl-D-Phe-cyclo(Cys-Tyr-D-Trp-Lys-Abu-Cys)-Thr-NH2]
Significant reduction of [3H]thy incorporation (human MTC cell line TT [2]; 10^-8 M and 10^-7 M): not
Significant reduction of [3H]thy incorporation (human MTC cell line TT [2]; 10^-9 M): significantly (p<0.05) reduced
Change of [3H]thy incorporation (human MTC cell line TT [2]; 10^-9 M, 48 h): −13%

C[C@@H](O)[C@H](NC(=O)[C@H](Cc1ccccc1)NC(=O)[C@@H](NC(=O)[C@H](CCCCN)NC(=O)[C@@H](Cc1c[nH]c2ccccc12)NC(=O)[C@H](Cc1c[nH]c2ccccc12)NC(=O)[C@H](Cc1ccccc1)NC(=O)[C@H](N)Cc1ccccc1)[C@@H](C)O)C(N)=O [Compound 5, D-Phe-Phe-Trp-D-Trp-Lys-Thr-Phe-Thr-NH2]
Effect on suppression of TT cell [3H]thy incorporation produced by Compound 2 (human MTC cell line TT [2]; 10^-9 M to 10^-6 M with Compound 2 10^-7 M, FIG. 8 upper panel): dose-dependently prevented
Increase of [3H]thy incorporation (human MTC cell line TT [2]; 10^-9 to 10^-6 M, 48 h): 80-175%
Increase of TT cell proliferation (human MTC cell line TT [3]; 10^-8 M, not statistically different from control): up to 11%
Effect on suppression of TT cell proliferation produced by Compound 2 (human MTC cell line TT [3]; 10^-9 M to 10^-6 M with Compound 2 10^-7 M, FIG. 8 lower panel): dose-dependently prevented
